The source of these data is ChEMBL document CHEMBL2176918, “Design and optimization of pyrazinecarboxamide-based inhibitors of diacylglycerol acyltransferase 1 (DGAT1) leading to a clinical candidate dimethylpyrazinecarboxamide phenylcyclohexylacetic acid (AZD7687)” (J Med Chem, 2012).

Molecules are shown by their SMILES. Converted amounts (≈) assume the structure as drawn. Some results are limits rather than exact numbers.

Usually fraction unbound stands for free concentration divided by total concentration. The term IC50 denotes the concentration that gives 50% inhibition. The Papp A→B is the apparent permeability from the apical to the basolateral side of a cell layer. As a reminder, the solubility is how much of the substance goes into solution per volume. Usually Tmax stands for the time from dosing to the highest level.

Data set [1] can be described thus: Fraction unbound in rat plasma. The format is ADME, cell-free.
In data set [2] the target is T1, Diacylglycerol O-acyltransferase 1 (Rattus norvegicus, UniProt Q9ERM3).
T1 sequence (Q9ERM3 whole entry): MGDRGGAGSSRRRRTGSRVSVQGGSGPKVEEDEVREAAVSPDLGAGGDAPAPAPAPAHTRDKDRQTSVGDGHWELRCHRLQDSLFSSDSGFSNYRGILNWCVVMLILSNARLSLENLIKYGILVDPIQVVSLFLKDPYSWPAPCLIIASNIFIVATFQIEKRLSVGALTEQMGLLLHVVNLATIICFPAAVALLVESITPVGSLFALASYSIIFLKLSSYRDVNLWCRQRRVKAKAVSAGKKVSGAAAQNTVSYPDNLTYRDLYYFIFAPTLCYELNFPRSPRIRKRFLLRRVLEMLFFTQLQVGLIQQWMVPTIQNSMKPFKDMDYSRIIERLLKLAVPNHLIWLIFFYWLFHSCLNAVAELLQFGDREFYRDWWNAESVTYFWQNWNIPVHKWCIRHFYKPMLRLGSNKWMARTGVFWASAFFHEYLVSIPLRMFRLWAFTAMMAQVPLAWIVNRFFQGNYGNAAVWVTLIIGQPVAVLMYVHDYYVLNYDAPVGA
The experiment in a line: Inhibition of DGAT1 in rat liver microsomes. The arrangement: species or system Microsome. (In general: Liver microsomes are vesicles of endoplasmic reticulum, rich in cytochrome P450 enzymes.)

The test system of data set [3] is Rattus norvegicus. The experiment in a line: Inhibition of plasma triacylglycerol excursion in 14 hrs fasted Han-Wistar rat at administered orally 2 hrs before bolus corn oil administration measured 1.5 hrs post corn oil challenge by oral lipid tolerance test relative to control.
The nature of data set [4]: Apparent permeability from apical to basolateral side in MDCK cells at pH 7.4. Particulars: dog.
Data set [5] addresses T2, Diacylglycerol O-acyltransferase 2 (Homo sapiens, UniProt Q96PD7).
T2 sequence (Q96PD7 whole entry): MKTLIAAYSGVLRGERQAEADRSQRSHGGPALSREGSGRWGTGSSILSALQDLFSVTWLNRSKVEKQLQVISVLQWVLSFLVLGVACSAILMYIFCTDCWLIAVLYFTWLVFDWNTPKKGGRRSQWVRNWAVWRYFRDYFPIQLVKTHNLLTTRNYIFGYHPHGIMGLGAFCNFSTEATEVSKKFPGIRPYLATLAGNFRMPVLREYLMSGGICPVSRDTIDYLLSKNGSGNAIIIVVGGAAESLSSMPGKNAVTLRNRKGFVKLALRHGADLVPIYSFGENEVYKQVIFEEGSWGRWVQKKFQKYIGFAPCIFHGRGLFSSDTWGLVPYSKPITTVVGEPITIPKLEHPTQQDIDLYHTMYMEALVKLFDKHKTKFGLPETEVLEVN
The data set can be described thus: Inhibition of human DGAT2 by liquid scintillography.

A short description of data set [6]: Clearance in Beagle dog at 27.2 uM/kg, po or 1.4 uM/kg, iv. The conditions noted are these: in vivo. The format is ADME, organism-based, Canis lupus familiaris.
The nature of data set [7]: Solubility in 0.1 M phosphate buffer at pH 7.4 at 25 degC incubated for 24 hrs.
Data set [8] addresses T3, Diacylglycerol O-acyltransferase 1 (Homo sapiens, UniProt O75907).
T3 sequence (O75907 whole entry): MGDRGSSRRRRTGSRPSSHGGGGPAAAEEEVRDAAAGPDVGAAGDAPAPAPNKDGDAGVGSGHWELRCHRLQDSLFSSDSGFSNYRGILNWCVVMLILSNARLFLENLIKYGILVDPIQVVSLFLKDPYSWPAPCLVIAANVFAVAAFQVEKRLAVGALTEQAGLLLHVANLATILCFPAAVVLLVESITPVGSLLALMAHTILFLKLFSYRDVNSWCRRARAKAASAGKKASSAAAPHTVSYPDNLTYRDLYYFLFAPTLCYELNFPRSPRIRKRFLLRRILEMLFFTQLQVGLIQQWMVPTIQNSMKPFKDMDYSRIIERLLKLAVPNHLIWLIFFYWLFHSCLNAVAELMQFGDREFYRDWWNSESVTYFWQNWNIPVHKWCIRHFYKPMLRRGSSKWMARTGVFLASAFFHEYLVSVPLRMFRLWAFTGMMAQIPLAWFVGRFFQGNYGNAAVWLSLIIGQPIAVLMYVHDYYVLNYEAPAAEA
The data set can be described thus: Inhibition of DGAT1 in human liver microsomes. The arrangement: species or system Microsome.

A short description of data set [9]: Volume of distribution in Han-Wistar rat at 5.4 uM/kg, po or 2.7 uM/kg, iv. The format is ADME, organism-based. The conditions noted are these: in vivo.
A short description of data set [10]: Fraction unbound in dog plasma. In kind it is ADME, cell-free, Canis lupus familiaris.
Data set [11] is described as follows: Tmax in human at 1 to 20 mg. The format is ADME, organism-based. Particulars: in vivo.
Data set [12] has as its target Cytochrome P450 2C9 (Homo sapiens, UniProt P11712). The experiment in a line: Inhibition of CYP2C9. The format is ADME.
The nature of data set [13]: Volume of distribution in Beagle dog at 27.2 uM/kg, po or 1.4 uM/kg, iv. In kind it is ADME, organism-based, Canis lupus familiaris. Particulars: in vivo.
Data set [14] can be described thus: Intrinsic clearance in dog hepatocytes assessed as parent compound disappearance at 1 uM per 10^6 cells. In kind it is ADME, cell-based, Canis lupus familiaris, Hepatocyte. Particulars: read-out: CLH.
Data set [15] in a line: Intrinsic clearance in mouse hepatocytes assessed as parent compound disappearance at 1 uM per 10^6 cells. The format is ADME, cell-based, Hepatocyte. The conditions noted are these: read-out: CLH.
Data set [16] is described as follows: Fraction unbound in mouse plasma. The format is ADME, cell-free.
Data set [17] addresses T3, Diacylglycerol O-acyltransferase 1. The data set can be described thus: Inhibition of DGAT1 in human adipose tissue assessed as reduction in triacylglycerol synthesis.
For data set [18], the target named is T4, Cytochrome P450 1A2 (Homo sapiens, UniProt P05177).
T4 sequence (P05177 whole entry): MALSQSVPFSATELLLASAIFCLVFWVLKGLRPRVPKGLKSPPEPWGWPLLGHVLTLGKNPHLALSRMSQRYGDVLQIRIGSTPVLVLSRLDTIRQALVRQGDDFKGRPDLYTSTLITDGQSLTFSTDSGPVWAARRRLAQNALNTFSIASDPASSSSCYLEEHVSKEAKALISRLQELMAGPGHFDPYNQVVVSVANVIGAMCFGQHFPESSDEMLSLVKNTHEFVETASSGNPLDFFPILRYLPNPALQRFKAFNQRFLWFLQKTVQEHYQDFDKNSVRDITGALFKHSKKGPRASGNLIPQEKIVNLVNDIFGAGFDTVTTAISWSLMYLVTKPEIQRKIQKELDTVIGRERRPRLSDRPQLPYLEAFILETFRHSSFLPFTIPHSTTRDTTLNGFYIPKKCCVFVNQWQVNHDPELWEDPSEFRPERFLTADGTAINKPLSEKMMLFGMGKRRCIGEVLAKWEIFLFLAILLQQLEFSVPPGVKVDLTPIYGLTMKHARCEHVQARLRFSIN
The data set can be described thus: Inhibition of CYP1A2. In kind it is ADME.

The nature of data set [19]: Terminal half life in human at 1 to 20 mg. In kind it is ADME, organism-based. The conditions noted are these: in vivo, read-out: beta t1/2 (converted).
Data set [20] is described as follows: Clearance in C57BL/6 mouse at 8.16 uM/kg, po or 5.4 uM/kg, iv. The conditions noted are these: in vivo. The format is ADME, organism-based.
A short description of data set [21]: Chemical stability in pH 1 to 10 buffer at 25 degC. The format is physicochemical.
For data set [22], the target named is T1, Diacylglycerol O-acyltransferase 1. The data set can be described thus: Inhibition of DGAT1 in rat adipose tissue assessed as reduction in triacylglycerol synthesis. In kind it is tissue-based.

Chain of Cytochrome P450 2C9 (P11712 whole entry): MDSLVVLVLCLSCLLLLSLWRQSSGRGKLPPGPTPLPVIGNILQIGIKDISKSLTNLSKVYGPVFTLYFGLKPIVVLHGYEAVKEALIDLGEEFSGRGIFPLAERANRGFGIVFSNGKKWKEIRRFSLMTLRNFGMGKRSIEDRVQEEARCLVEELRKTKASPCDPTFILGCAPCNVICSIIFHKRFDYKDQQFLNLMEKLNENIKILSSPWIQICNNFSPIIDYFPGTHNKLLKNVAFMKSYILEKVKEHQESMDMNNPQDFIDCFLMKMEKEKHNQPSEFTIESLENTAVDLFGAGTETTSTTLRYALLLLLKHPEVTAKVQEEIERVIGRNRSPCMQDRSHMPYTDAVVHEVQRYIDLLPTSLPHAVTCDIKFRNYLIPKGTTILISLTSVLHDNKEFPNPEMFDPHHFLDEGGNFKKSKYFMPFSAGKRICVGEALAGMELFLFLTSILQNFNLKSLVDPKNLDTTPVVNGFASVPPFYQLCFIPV

`Cc1nc(C)c(-c2ccc(C3CCC(CC(=O)O)CC3)cc2)nc1C(N)=O` (configuration not stated) [AZD-7687]: the figures for the fraction unbound in [1], in [10] and in data set [16] were 0.03, 0.06 and 0.1, respectively. Moreover, the IC50 was 150 nM in data set [2]; 42 nM in data set [3]; > 300000 nM in data set [5]; 70 nM in [8]; > 30000 nM in data set [12]; 10 nM in data set [17]. In addition, the IC50 is > 30000 nM in data set [18] and 90 nM in data set [22]. In [4], the Papp A→B worked out at 12 ×10⁻⁶ cm/s. In addition, the clearance in data set [6] amounted to 1.2 mL/min/kg; in data set [20], 0.77 mL/min/kg. The compound also showed a solubility at 24 h in data set [7] of 700 µM (≈ 257 µg/mL). The Vd in data set [9] was 0.35 L/kg; in data set [13], 1 L/kg. The Tmax in data set [11] is ≤ 1 h. In addition, the hepatocyte CLint at 1 µM in data set [14] amounted to 5.5 µL/min/1e6 cells; in [15], 7.3 µL/min/1e6 cells. Besides, the half-life in data set [19] is 9 h; in data set [21] it was > 100 days.
